Here are results for 3 compounds from paper PMC11739085, “A novel non-invasive murine model for rapidly testing drug activity via inhalation administration against Mycobacterium tuberculosis” (Frontiers in Pharmacology, 2025).

Data set [1] can be described thus: Pharmacokinetics in lung via inhalation. The conditions noted are these: for duration lung concentration above in vitro MIC against M. tuberculosis: lung tissue, inhalation.
The nature of data set [2]: in vivo. The conditions noted are these: mouse, inhaled or intranasal.
A short description of data set [3]: Pharmacokinetics in plasma via inhalation. Particulars: for duration plasma concentration exceeded in vitro MIC against M. tuberculosis / peak concentration in plasma / AUC(0-t) / AUC(0-inf) / Tmax: mice.
The test system of data set [4] is autoluminescent M. tuberculosis H37Rv (AlRv). It counts as in vivo, Mycobacterium tuberculosis.
Data set [5] has the same test system. The data set is classed as in vivo, Mycobacterium tuberculosis. The source holds these as a separate data set.
A short description of data set [6]: in vivo. Particulars: mouse, inhaled or intranasal. This is another data set of the same source.
The subject of data set [7] is M. tuberculosis. Particulars: stated without method or reference; cited from earlier work.
Details of data set [8]: method as in Grewal et al., 2018; Grosset et al., 1992; Lyons et al., 2013. Particulars: mice, oral administration; ref Grewal et al., 2018; Grosset et al., 1992; Lyons et al., 2013; cited from earlier work.
The test system of data set [9] is AlRv. As to the kind of experiment: Published inhalation administration method using a syringe-like device in mice infected with AlRv. The data set is classed as in vivo, Mycobacterium tuberculosis. Particulars: unpublished data. From the text:
To date, four primary research reports, encompassing three inhalation administration models, have explored the detection of anti-TB drug efficacy through airway administration ([Garcia-Contreras et al., 2007]; [Garcia-Contreras et al., 2010]; [Gonzalez-Juarrero et al., 2012]; [Verma et al., 2013]). Among these studies, only two have employed murine models for their investigations. Supplementary Table S1 presents a comprehensive comparison of the advantages and disadvantages of each report relative to our study. Compared to these existing inhalation administration model, our innovative method achieves several improvements. Firstly, it is cost-effective and user-friendly, employing mice instead of larger animals. Secondly, it eliminates the need for anesthesia in mice during administration, simplifying the instrument operation. We also endeavored to utilize a published inhalation administration method using a syringe-like device in mice infected with AlRv. However, we encountered significant challenges in administering drugs daily due to the development of swollen throats in the mice ([Gonzalez-Juarrero et al., 2012]). […] Thirdly, the results obtained are relatively objective and repeatable, thereby minimizing the influence of human factor. Fourthly, the same treatment group, consisting of six mice, is administrated daily and simultaneously. […]

The mark [10] stands for this setting: mice, RIF 2, INH 0.5, EMB 10 mg/mL.
Setting [11] is: inhalation, RIF 2, INH 0.5, EMB 10 mg/mL.
Where [12] appears, read: lung, mice, single inhalation, RIF 2, INH 0.5, EMB 10 mg/mL.
[13] abbreviates: mouse, lung, inhaled or intranasal, AUC0-t, mice, single inhalation 25 min, RIF 2, INH 0.5, EMB 10 mg/mL.
[14] abbreviates: mouse, lung, inhaled or intranasal, Tmax, mice, single inhalation 25 min, RIF 2, INH 0.5, EMB 10 mg/mL.
Setting [15] is: mouse, lung, inhaled or intranasal, time of peak concentration in lung post-administration, mice, single inhalation, RIF 2, INH 0.5, EMB 10 mg/mL.
The mark [16] stands for this setting: single inhalation, RIF 2, INH 0.5, EMB 10 mg/mL.
Where [17] appears, read: mouse, inhaled or intranasal, AUC0-t in plasma, inhalation, t = 4 h for INH and 24 h for RIF and EMB.
Where [18] appears, read: mouse, inhaled or intranasal, AUC0-t, single inhalation 25 min, RIF 2, INH 0.5, EMB 10 mg/mL, t = 4 h for INH, 24 h for RIF and EMB.
[19] abbreviates: mouse, inhaled or intranasal, AUC0-∞ in plasma, inhalation.
[20] abbreviates: mouse, inhaled or intranasal, AUC0-∞, single inhalation 25 min, RIF 2, INH 0.5, EMB 10 mg/mL.
The mark [21] stands for this setting: mouse, inhaled or intranasal, time of peak concentration in plasma post-administration, single inhalation, RIF 2, INH 0.5, EMB 10 mg/mL, first sampling point 5 min.
[22] abbreviates: […], RIF 2, INH 2, EMB 10 mg/mL, lungs D18.

Values joined by “and” are separate entries in the source; they are usually repeats but may differ in a detail not shown here. Equal values may be shown once. “Also recorded” adds a separate entry of the source. Read-outs that look alike come from different tables or passages of the source.

Turning to `CO[C@H]1/C=C/O[C@@]2(C)Oc3c(C)c(O)c4c(O)c(c(/C=N/N5CCN(C)CC5)c(O)c4c3C2=O)NC(=O)/C(C)=C\C=C\[C@H](C)[C@H](O)[C@@H](C)[C@@H](O)[C@@H](C)[C@H](OC(C)=O)[C@@H]1C` [RIF, rifampicin], the “duration lung concentration above in vitro MIC against M. tuberculosis” value (“duration lung concentration above” below) in data set [1] (setting [10]) is on record as “approximately 24 h”. Besides, the Tmax in [2] (Tmax) amounted to 4.8 min. Also, the Tmax in data set [2] (time of peak concentration in lung post-administration) is 5 min. In addition, in [3] (setting [11]), the “duration plasma concentration exceeded in vitro MIC against M. tuberculosis” value (shortened to “duration plasma concentration exceeded”) is on record as “approximately 24 h”. Besides, in data set [4] (in vivo), the “bactericidal activity by lung suspension RLU and CFU” value is “failed to demonstrate bactericidal activity”; the “log10CFUs/lung difference to solvent group” value (from here on “log10CFUs/lung difference”) is on record as “exceeding 1.5 log10CFUs/lung”; the “log10RLUs/lung difference to solvent group” value is reported as “exceeding 1.5 log10RLUs/lung”; the “lowest inhaled concentration showing anti-M. tuberculosis activity in vivo” value was found to be 0.5 mg/mL. In [4] (in vivo), the “lung CFUs compared with solvent group” value was “slightly significantly lower; also recorded: approximately comparable” and the “lung RLUs compared with solvent group” value is “comparable”. Also, in [5] (in vivo), the “lung CFUs compared with BT group” value is reported as “higher”. In addition, in data set [6] (AUC0-t in plasma), the AUC(0-t) came out at 19000 ng·h/mL. In data set [6] (AUC0-∞ in plasma), this compound registered an AUC(0-inf) of 21000 ng·h/mL. The Tmax in [6] (Tmax) is 4.8 min. In [6] (time of peak concentration in plasma post-administration), the Tmax was 5 min. Further, the “in vitro minimum inhibitory concentration (MIC)” value in data set [7] was 0.06 µg/mL.

Turning to `NNC(=O)c1ccncc1` [INH, isoniazid], the “time of highest plasma concentration post-administration” value in data set [8] was 0.25 h. Moreover, the “duration lung concentration above” value in [1] (setting [10]) is reported as roughly 0.5 h. For the same compound, the “concentration in the lungs 30 min post-administration” value in data set [1] (lung, mice, inhalation 0.5 mg/mL, 30 min post-administration) is given as “nearly undetectable; also recorded: near-zero”. The “peak concentration in lung” value in data set [1] (setting [12]) is 2.52 ± 0.81 µg/g. Further, the AUC(0-t) in data set [1] (mouse, lung, inhaled or intranasal, 0.5 mg/mL, AUC0-t in the lungs, mice, inhalation 0.5 mg/mL) was found to be 340 ng·h/mL; in [1] (setting [13]), 337 ng·h/mL; in data set [3] (setting [17]), 1570 ng·h/mL; in [3] (setting [18]) it was 1570 ng·h/mL. For the same compound, the Tmax is 15 min in data set [1] (setting [14]), no more than 15 min in data set [1] (setting [15]), no more than 5 min in [3] (setting [21]) and 4.8 min in data set [6]. Besides, the “duration plasma concentration exceeded” value in data set [3] (setting [11]) is on record as roughly 3 h. In [3] (setting [16]), the “peak concentration in plasma” value came out at 2.66 ± 0.29 µg/mL. In addition, the AUC(0-inf) in [3] (setting [19]) and in data set [3] (setting [20]) was 1790 ng·h/mL in each case. The “colonies on plates of lung suspension” value in data set [4] ([…], only a fraction of the lung suspension plated) is given as “no colonies were observed”. In data set [4] (in vivo), the “log10CFUs/lung difference” value is given as “exceeding 1.5 log10CFUs/lung”. Moreover, the “log10RLUs/lung difference to solvent group” value in [4] (in vivo) is “exceeding 1.5 log10RLUs/lung”. For the same compound, the “lowest inhaled concentration showing anti-M. tuberculosis activity in vivo” value in data set [4] (in vivo) stood at 0.5 mg/mL. In addition, the “lung CFUs compared with BT group” value in data set [4] (in vivo) and in data set [5] (setting [22]) was “lower” each time. The “lung RLUs compared with BT group” value in data set [4] (in vivo) is “comparable”; in [5] (setting [22]), “slightly lower”. The “lung RLUs compared with solvent group” value in data set [4] (in vivo) is given as “similar”. Further, the “RLUs compared with untreated control and the same mice the day before administration” value in [9] is reported as “reduced RLUs”. Also, the “in vitro minimum inhibitory concentration (MIC)” value in [7] was 0.13 µg/mL.

On to `CC[C@@H](CO)NCCN[C@@H](CC)CO` [EMB, ethambutol], for which the “time of highest plasma concentration post-administration” value in data set [8] was 1.33 h. The “duration lung concentration above” value in [1] (setting [10]) is on record as roughly 10 h. In addition, in data set [1] (setting [12]), the “peak concentration in lung” value amounted to 10.94 ± 1.63 µg/g. For the same compound, the half-life in data set [1] (mouse, lung, inhaled or intranasal) was 274 min; in data set [3] (mouse, inhaled or intranasal) it was 170 min. Besides, the AUC(0-t) in [1] (setting [13]) is 47300 ng·h/mL; in data set [3] (setting [17]) it was 103000 ng·h/mL; in data set [3] (setting [18]), 103000 ng·h/mL. The AUC(0-inf) in [1] (mouse, lung, inhaled or intranasal, AUC0-∞, mice, single inhalation 25 min, RIF 2, INH 0.5, EMB 10 mg/mL) was 48700 ng·h/mL; in data set [3] (setting [19]), 103000 ng·h/mL; in [3] (setting [20]) it was 103000 ng·h/mL. The Tmax in [1] (setting [14]) was 4.8 min; in [1] (setting [15]), no more than 5 min; in [3] (mouse, inhaled or intranasal, Tmax, single inhalation 25 min, RIF 2, INH 0.5, EMB 10 mg/mL) it was 4.8 min; in data set [3] (setting [21]), no more than 5 min. The “duration plasma concentration exceeded” value in data set [3] (setting [11]) is roughly 14 h. Further, in data set [3] (setting [16]), the “peak concentration in plasma” value is 28.64 ± 16.80 µg/mL and 28.64 ± 16.8 µg/mL. Moreover, the “live RLUs compared with solvent group” value in data set [4] (in vivo) is “significantly lower”. For the same compound, the “log10CFUs/lung difference” value in [4] (in vivo) is “exceeding 1.5 log10CFUs/lung”. Also, the “lowest inhaled concentration showing anti-M. tuberculosis activity in vivo” value in [4] (in vivo) came out at 0.625 mg/mL. The “lung CFUs compared with BT group” value in data set [4] (in vivo) is “nearly identical”; in data set [5] (setting [22]), “almost similar”. In [4] (in vivo), the “lung CFUs compared with solvent control” value is listed as “significantly reduced”. For the same compound, the “lung RLUs compared with BT group” value is given as “equivalent” in [4] (in vivo) and “nearly identical” in [5] (setting [22]). Further, in data set [4] (in vivo), the “lung RLUs compared with solvent group” value was “less significant differences”. In addition, the “in vitro minimum inhibitory concentration (MIC)” value in [7] is 2.00 µg/mL.

Broadly, the Tmax is the time from dosing to the highest level. What is called AUC(0-t) is exposure summed from dosing to a finite time, without extrapolation to infinity. Low readings indicate less exposure, high ones more exposure. The AUC(0-inf) is total exposure, with the tail of the curve extrapolated. Usually half-life stands for the time in which the quantity being followed falls by half. Low readings indicate rapid decline, high ones slow decline.
